The record followed here is patent US20060276498A1 (Wyeth, priority 2005, published 2006).

The target in this assay is T1, human Cot/Tpl2 kinase (Homo sapiens, UniProt P41279).
T1 construct: human Cot/Tpl2 kinase construct encoding residues 30-398; 6His (N); made in house; host or cells: Sf9 insect cells (baculovirus system, BD Biosciences)
Put plainly: Tpl2/Cot kinase assay, GST-MEK1 phosphorylation detected by ELISA (DELFIA Eu). Format: biochemical. As for the experimental part:
Sf9 cells expressing the kinase were lysed in 50 mM NaPhosphate pH=8; 300 mM NaCl; 5 mM imidazole; 0.1 mM EGTA; 25 mM beta-glycerophosphate; 1% TX-100, 1% glycerol; 6 mM beta-mercaptoethanol and protease inhibitors. The lysate was clarified by centrifugation and was loaded onto a Ni-Sepharose column. The column was washed with 50 mM NaPhosphate pH=8; 300 mM NaCl; 15 mM imidazole; 1% glycerol; and 6 mM beta-mercaptoethanol. His-Tpl2 was eluted with 50 mM NaPhosphate pH=8; 300 mM NaCl; 250 mM imidazole; 1% glycerol; and 6 mM beta-mercaptoethanol. The eluted protein was further purified by size exclusion chromatography. Fractions corresponding to monomeric Tpl2 were then used in the assay.
Tpl2/Cot activity was directly assayed using GST-MEK1 as a substrate. GST-MEK1 phosphorylation on serine residues 217 and 221 was detected by ELISA. 0.4 nM Tpl2 was incubated with 35 nM GST-MEK1 in a kinase reaction buffer containing 20 mM MOPS pH=7.2; 50 uM ATP; 20 mM MgCl2; 1 mM DTT; 25 mM β-glycerophosphate; 5 mM EGTA; and 1 mM sodium orthovanadate for 1 h at 30° C. The compounds of the inventions solubilized in 100% DMSO were pre-diluted in assay buffer so that the final concentration of DMSO in the reaction was 1%. The kinase reaction was carried out in 100 ul volume on 96 well plates. The kinase reaction was then stopped with the addition of 100 mM EDTA. […] After a 1 hour incubation at room temperature, the detection plate was washed 4 times with TBST (TBS+0.05% Tween 20) and then incubated for another hour at room temperature with anti phospho-MEK1 antibody (Cell Signaling) 1:1000 in 10 mM MOPS 7.5; 150 mM NaCl; 0.05% Tween 20; 0.1% Gelatin; 0.02% NaN3; and 1% BSA. The detection plate was washed again and incubated for 30 min with DELFIA Europium (Eu) labeled goat anti-rabbit IgG (Perkin-Elmer), 1:4000 in the same buffer used for the primary incubation. After a final wash, Eu detection solution was added to each well and the Eu signal was measured in a Wallac Victor^2 Multilabel Counter. IC50 calculations were preformed using the XLfit software package (IDBS, Guildford, UK).

Setting [1] is: Table 1, 0.4 nM Tpl2, 35 nM GST-MEK1, 50 uM ATP, 1 h at 30° C.
Where [2] appears, read: Table 2, additional representative compounds.

T1 sequence (P41279 30-398): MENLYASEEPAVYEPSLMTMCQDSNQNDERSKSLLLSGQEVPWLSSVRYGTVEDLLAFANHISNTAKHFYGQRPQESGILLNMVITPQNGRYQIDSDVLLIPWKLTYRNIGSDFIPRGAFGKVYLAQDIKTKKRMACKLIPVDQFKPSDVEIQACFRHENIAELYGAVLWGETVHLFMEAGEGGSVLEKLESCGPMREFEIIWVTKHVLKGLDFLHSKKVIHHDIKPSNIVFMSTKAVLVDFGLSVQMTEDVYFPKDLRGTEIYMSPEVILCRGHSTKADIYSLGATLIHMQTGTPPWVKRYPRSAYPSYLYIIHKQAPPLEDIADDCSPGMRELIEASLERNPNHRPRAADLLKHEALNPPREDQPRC

For `CC(C)c1cccc(Nc2c(C#N)cnc3cnc(NCCN4CCOCC4)cc23)c1` [Example 37, 4-[(3-isopropylphenyl)amino]-6-[(2-morpholin-4-ylethyl)amino]-1,7-naphthyridine-3-carbonitrile], the half-maximal inhibitory concentration (IC50) under setting [1] was over 40 µM.

As for `Cc1cccc(Nc2c(C#N)cnc3cnc(NCc4cccnc4)cc23)c1` [Example 29, 4-(3-methylphenylamino)-6-(pyridin-3-ylmethylamino)-1,7-naphthyridine-3-carbonitrile], the IC50 under setting [1] was over 40 µM.

`N#Cc1cnc2cnc(NCc3cccnc3)cc2c1Nc1ccc(Cc2ccccc2)cc1` [Example 14, 4-(4-benzylphenylamino)-6-(pyridin-3-ylmethylamino)-1,7-naphthryidine-3-carbonitrile] gave a half-inhibitory concentration (IC50) under setting [1] of 0.017 µM.

`N#Cc1cnc2cnc(NCc3cccnc3)cc2c1Nc1cccc(Cl)c1` [Example 12, 4-(3-chlorophenylamino)-6-(pyridin-3-ylmethylamino)-1,7-naphthyridine-3-carbonitrile] registered an IC50 under setting [1] of 0.065 µM.

Consider `N#Cc1cnc2cnc(NCc3ccccn3)cc2c1Nc1ccc(F)c(Cl)c1` [Example 123, 4-(3-chloro-4-fluorophenylamino)-6-(pyridin-2-ylmethylamino)-1,7-naphthyridine-3-carbonitrile], for which the concentration for half-maximal inhibition (IC50) under setting [2] was 0.13 µM.

`Cc1ccc(Nc2c(C#N)cnc3cnc(NCCN4CCOCC4)cc23)cc1Br` [Example 64, 4-[(3-bromo-4-methylphenyl)amino]-6-[(2-morpholin-4-ylethyl)amino]-1,7-naphthyridine-3-carbonitrile] yielded a half-inhibitory concentration (IC50) under setting [1] of over 40 µM.

Molecule `C[C@@H](O)CNc1cc2c(Nc3ccc(F)c(Cl)c3)c(C#N)cnc2cn1` [Example 55, 4-[(3-chloro-4-fluorophenyl)amino]-6-{[(2R)-2-hydroxypropyl]amino}-1,7-naphthyridine-3-carbonitrile] yielded an IC50 under setting [1] of 1.5 µM.

Under setting [2], `N#Cc1cnc2cnc(NCc3cccnc3)cc2c1NC1CCCC1` [Example 112, 4-(cyclopentylamino)-6-[(pyridin-3-ylmethyl)amino]-1,7-naphthyridine-3-carbonitrile] came in with an IC50 of 0.32 µM.

On to `N#Cc1cnc2cnc(F)cc2c1Nc1ccc(OC(F)(F)F)cc1` [Example 128, 6-fluoro-4-{[4-(trifluoromethoxy)phenyl]amino}-1,7-naphthyridine-3-carbonitrile], for which the 50% inhibitory concentration (IC50) under setting [2] was over 40 µM.

Turning to `N#Cc1cnc2cnc(F)cc2c1Nc1ccc2[nH]ccc2c1` [Example 102, 6-fluoro-4-(1H-indol-5-ylamino)-1,7-naphthyridine-3-carbonitrile], the half-maximal inhibitory concentration (IC50) under setting [2] was over 40 µM.

Turning to `N#Cc1cnc2cnc(NCc3cccnc3)cc2c1NC1CCCCC1` [Example 114, 4-(cyclohexylamino)-6-[(pyridin-3-ylmethyl)amino]-1,7-naphthyridine-3-carbonitrile], under setting [2], the concentration for half-maximal inhibition (IC50) stood at 0.47 µM.

For `C[C@@H](Nc1cc2c(Nc3ccc(F)c(Cl)c3)c(C#N)cnc2cn1)[C@@H](O)c1ccccc1` [Example 53, 4-[(3-chloro-4-fluorophenyl)amino]-6-{[(1R, 2S)-2-hydroxy-1-methyl-2-phenylethyl]amino}-1,7-naphthyridine-3-carbonitrile], half-maximal inhibition under setting [1] (IC50) required 7 µM.

Under setting [2], `CC(Nc1cc2c(Nc3ccc(F)c(Cl)c3)c(C#N)cnc2cn1)c1ccccc1` (stereo not drawn) [Example 115, 4-[(3-chloro-4-fluorophenyl)amino]-6-[(1-phenylethyl)amino]-1,7-naphthyridine-3-carbonitrile] registered an IC50 of over 40 µM.

For the molecule `CN(c1ccc(F)c(Cl)c1)c1c(C#N)cnc2cnc(F)cc12` [Example 107, 4-[(3-chloro-4-fluorophenyl)(methyl)amino]-6-fluoro-1,7-naphthyridine-3-carbonitrile], under setting [2], the IC50 is over 10 µM.

For the molecule `CS(=O)(=O)c1ccc(CNc2cc3c(NCc4ccc(S(C)(=O)=O)cc4)c(C#N)cnc3cn2)cc1` [Example 132, 4,6-bis{[4-(methylsulfonyl)benzyl]amino}-1,7-naphthyridine-3-carbonitrile], under setting [2], the IC50 came to 16.9 µM.

Turning to `N#Cc1cnc2cnc(F)cc2c1Nc1ccc(Cc2ccccc2)cc1` [Example 106, 4-[(4-benzylphenyl)amino]-6-fluoro-1,7-naphthyridine-3-carbonitrile], the midpoint of inhibition under setting [2], the IC50, lay at 0.3 µM.

For `N#Cc1cnc2cnc(N[C@H]3CCCc4ccccc43)cc2c1Nc1ccc(F)c(Cl)c1` [Example 71], under setting [1], half-maximal inhibition (IC50) was put at 3.9 µM.

As to `N#Cc1cnc2cnc(N[C@H](CN3CCOCC3)c3ccccc3)cc2c1Nc1ccc(F)c(Cl)c1` [Example 58, 4-[(3-chloro-4-fluorophenyl)amino]-6-{[(1S)-2-morpholin-4-yl-1-phenylethyl]amino}-1,7-naphthyridine-3-carbonitrile], under setting [1], the IC50 was determined as 3.7 µM.

In turn, `N#Cc1cnc2cnc(NCc3cccnc3)cc2c1Nc1ccc(Sc2ccccc2)cc1` [Example 19, 4-(4-(phenylthio)phenylamino)-6-(pyridin-3-ylmethylamino)-1,7-naphthyridine-3-carbonitrile] returned a 50% inhibitory concentration (IC50) under setting [1] of 0.009 µM.

Under setting [1], `CN(C)CCCNc1cc2c(Nc3ccc(F)c(Cl)c3)c(C#N)cnc2cn1` [Example 48, 4-[(3-chloro-4-fluorophenyl)amino]-6-{[3-(dimethylamino)propyl]amino}-1,7-naphthyridine-3-carbonitrile] showed a half-inhibitory concentration (IC50) of 5 µM.

In turn, `N#Cc1cnc2cnc(NCCN3CCOCC3)cc2c1Nc1cc(Cl)cc(Cl)c1` [Example 67, 4-[(3,5-dichlorophenyl)amino]-6-[(2-morpholin-4-ylethyl)amino]-1,7-naphthyridine-3-carbonitrile] registered a concentration for half-maximal inhibition (IC50) under setting [1] of 4.2 µM.

`CC(C)(C)Nc1c(C#N)cnc2cnc(NCc3cccnc3)cc12` [Example 110, 4-(tert-butylamino)-6-[(pyridin-3-ylmethyl)amino]-1,7-naphthyridine-3-carbonitrile] returned an IC50 under setting [2] of 0.63 µM.

Regarding `N#Cc1cnc2cnc(F)cc2c1Nc1ccc(Oc2ccccc2)cc1` [Example 99, 6-Fluoro-4-(4-phenoxy-phenylamino)-[1,7]naphthyridine-3-carbonitrile], half-maximal inhibition under setting [2] (IC50) required 20 µM.

For `N#Cc1cnc2cnc(NCCN3CCOCC3)cc2c1Nc1ccc([N+](=O)[O-])cc1` [Example 88, 6-(2-morpholinoethylamino)-4-(4-nitrophenylamino)-1,7-naphthyridine-3-carbonitrile], under setting [1], the half-maximal inhibitory concentration (IC50) was 7 µM.

Take `N#Cc1cnc2cnc(NCCN3CCOCC3)cc2c1Nc1ccc(Cc2ccccc2)cc1` [Example 7, 4-(4-benzylphenylamino)-6-(2-morpholinoethylamino)-1,7-naphthyridine-3-carbonitrile]: half-maximal inhibition under setting [1] (IC50) was put at 0.008 µM.

On to `CCN1CCC[C@H]1CNc1cc2c(Nc3ccc(F)c(Cl)c3)c(C#N)cnc2cn1` [Example 74], for which, under setting [1], 0.18 µM corresponded to half-maximal inhibition (IC50).

Consider `N#Cc1cnc2cnc(NCCN3CCOCC3)cc2c1Nc1ccc(C(=O)c2ccccc2)cc1` [Example 27, 4-(4-benzoylphenylamino)-6-(2-morpholinoethylamino)-1,7-naphthyridine-3-carbonitrile], for which the IC50 under setting [1] stood at 4.6 µM.

In the case of `CC(C)(C)Nc1c(C#N)cnc2cnc(NCc3ccc(S(C)(=O)=O)cc3)cc12` [Example 130, 4-(tert-butylamino)-6-{[4-(methylsulfonyl)benzyl]amino}-1,7-naphthyridine-3-carbonitrile], under setting [2], the half-inhibitory concentration (IC50) is 4.6 µM.

Under setting [1], `N#Cc1cnc2cnc(NCCN3CCOCC3)cc2c1Nc1ccc(-c2ccccc2)cc1` [Example 87, 4-(1,1′-biphenyl-4-ylamino)-6-[(2-morpholin-4-ylethyl)amino]-1,7-naphthyridine-3-carbonitrile] gave a half-maximal inhibitory concentration (IC50) of over 40 µM.

As to `N#Cc1cnc2cnc(NCc3cccnc3)cc2c1Nc1ccc(Br)cc1` [Example 17, 4-(4-bromophenylamino)-6-(pyridin-3-ylmethylamino)-1,7-naphthyridine-3-carbonitrile], the IC50 under setting [1] was over 10 µM.

`COc1ccc(CNc2cc3c(Nc4cccc(C(C)C)c4)c(C#N)cnc3cn2)cc1` [Example 38, 4-[(3-isopropylphenyl)amino]-6-[(4-methoxybenzyl)amino]-1,7-naphthyridine-3-carbonitrile] yielded a 50% inhibitory concentration (IC50) under setting [1] of over 40 µM.

`N#Cc1cnc2cnc(NCc3ccccc3)cc2c1Nc1ccc(F)c(Cl)c1` [Example 47, 6-(benzylamino)-4-[(3-chloro-4-fluorophenyl)amino]-1,7-naphthyridine-3-carbonitrile]: 0.1 µM corresponded to half-maximal inhibition under setting [1] (IC50).

As for `N#Cc1cnc2cnc(NCCN3CCOCC3)cc2c1Nc1ccc(F)c(F)c1` [Example 13, 4-(3,4-difluorophenylamino)-6-(2-morpholinoethylamino)-1,7-naphthryidine-3-carbonitrile], the half-inhibitory concentration (IC50) under setting [1] came to 3.6 µM.

As a reminder, the IC50 is the concentration that inhibits the measured activity by half. The low end stands for inhibition by little substance, the high end for a need for much substance.
